Measured values taken from PubChem BioAssay AID1259411 (Chemical Carcinogenesis Research Information System (CCRIS), 2018).
The source made the active and inactive calls. No rule for the calls is given here.

System: rodent carcinogenicity bioassays, tumor incidence
Assay: CCRIS carcinogenicity studies
In short: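 Archive of carcinogenicity, mutagenicity, tumor promotion and tumor inhibition results drawn from journals, NCI reports and other sources, expert-reviewed; covers 1985-2011 and is no longer updated.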

In the case of `CCN(CC)N=O`, the carcinogen call (Species: MOUSE, Strain/Sex: B6C3F1/MALE, Route: INTRAPERITONEAL, Dose: 0, 12 UG ON DAYS 0, 3, 9 AND 15 (STUDY DURATION: 132 WK), Tumor Site: Type of Lesion: LIVER: TUMORS) is reported as “active; positive”, the carcinogen call (Species: MOUSE, Strain/Sex: B6C3F2 (BRACHYMORPHIC)/MALE, Route: INTRAPERITONEAL, Dose: 0, 0.02, 0.07 UMOL/G BW IN 10 µL/G BW TRIOCTANOIN ONCE AT 12 D OF AGE (STUDY DURATION: 9 MO), Dose: 0, 0.02, 0.07 UMOL/G BW IN 10 µL/G BW TRIOCTANOIN ONCE AT 12 D OF AGE (STUDY DURATION: 9 MO), Tumor Site: Type of Lesion: LIVER: HEPATOMA) is reported as “active; positive” and the carcinogen call (Species: MOUSE, Strain/Sex: BALB/C/FEMALE, Route: INTRAPERITONEAL, Dose: 0, 15, 90 MG/KG ONCE (STUDY DURATION: 18 MONTHS), Dose: 0, 15, 90 MG/KG ONCE (STUDY DURATION: 18 MONTHS), Tumor Site: Type of Lesion: LUNG: TUMOR) is reported as “active; positive”. For the same molecule, the carcinogen call (Species: MOUSE, Strain/Sex: C3AF1/FEMALE, Route: INTRAPERITONEAL, Dose: 0, 1.5, 3 UG IN 0.01 ML TRIOCTANOIN/G BW INITIAL DOSE GIVEN ON DAY 1 OF AGE AND 3 SUBSEQUENT DOSES GIVEN 3, 9 AND 15 DAY, Dose: 0, 1.5, 3 UG IN 0.01 ML TRIOCTANOIN/G BW INITIAL DOSE GIVEN ON DAY 1 OF AGE AND 3 SUBSEQUENT DOSES GIVEN 3, 9 AND 15 DAY, Tumor Site: Type of Lesion: LIVER: ADENOMA, CARCINOMA, LUNG: TUMORS) was “active; positive”, the carcinogen call (Species: MOUSE, Strain/Sex: C3AF1/FEMALE, Route: INTRAPERITONEAL, Dose: 0, 1.5, 3 UG IN 0.01 ML TRIOCTANOIN/G BW INITIAL DOSE GIVEN ON DAY 15 OF AGE AND 3 SUBSEQUENT DOSES GIVEN 3, 9 AND 15 DA, Dose: 0, 1.5, 3 UG IN 0.01 ML TRIOCTANOIN/G BW INITIAL DOSE GIVEN ON DAY 15 OF AGE AND 3 SUBSEQUENT DOSES GIVEN 3, 9 AND 15 DA, Tumor Site: Type of Lesion: LIVER: ADENOMA, CARCINOMA, LUNG: TUMORS) was “active; positive” and the carcinogen call (Species: MOUSE, Strain/Sex: C3AF1/FEMALE, Route: INTRAPERITONEAL, Dose: 0, 1.5, 3 UG IN 0.01 ML TRIOCTANOIN/G BW INITIAL DOSE GIVEN ON DAY 42 OF AGE AND 3 SUBSEQUENT DOSES GIVEN 3, 9 AND 15 DA, Dose: 0, 1.5, 3 UG IN 0.01 ML TRIOCTANOIN/G BW INITIAL DOSE GIVEN ON DAY 42 OF AGE AND 3 SUBSEQUENT DOSES GIVEN 3, 9 AND 15 DA, Tumor Site: Type of Lesion: LUNG: TUMORS) was “active; positive”. The carcinogen call (Species: MOUSE, Strain/Sex: C3AF1/MALE, Route: INTRAPERITONEAL, Dose: 0, 1.5, 3 UG IN 0.01 ML TRIOCTANOIN/G BW INITIAL DOSE GIVEN ON DAY 1 OF AGE AND 3 SUBSEQUENT DOSES GIVEN 3, 9 AND 15 DAY, Dose: 0, 1.5, 3 UG IN 0.01 ML TRIOCTANOIN/G BW INITIAL DOSE GIVEN ON DAY 1 OF AGE AND 3 SUBSEQUENT DOSES GIVEN 3, 9 AND 15 DAY, Tumor Site: Type of Lesion: LIVER: ADENOMA, CARCINOMA, LUNG: TUMORS) was “active; positive”, the carcinogen call (Species: MOUSE, Strain/Sex: C3AF1/MALE, Route: INTRAPERITONEAL, Dose: 0, 1.5, 3 UG IN 0.01 ML TRIOCTANOIN/G BW INITIAL DOSE GIVEN ON DAY 15 OF AGE AND 3 SUBSEQUENT DOSES GIVEN 3, 9 AND 15 DA, Dose: 0, 1.5, 3 UG IN 0.01 ML TRIOCTANOIN/G BW INITIAL DOSE GIVEN ON DAY 15 OF AGE AND 3 SUBSEQUENT DOSES GIVEN 3, 9 AND 15 DA, Tumor Site: Type of Lesion: LIVER: ADENOMA, CARCINOMA, LUNG: TUMORS) was “active; positive” and the carcinogen call (Species: MOUSE, Strain/Sex: C3AF1/MALE, Route: INTRAPERITONEAL, Dose: 0, 1.5, 3 UG IN 0.01 ML TRIOCTANOIN/G BW INITIAL DOSE GIVEN ON DAY 42 OF AGE AND 3 SUBSEQUENT DOSES GIVEN 3, 9 AND 15 DA, Dose: 0, 1.5, 3 UG IN 0.01 ML TRIOCTANOIN/G BW INITIAL DOSE GIVEN ON DAY 42 OF AGE AND 3 SUBSEQUENT DOSES GIVEN 3, 9 AND 15 DA, Tumor Site: Type of Lesion: LIVER: ADENOMA, CARCINOMA, LUNG: TUMORS) was “active; positive”. The carcinogen call (Species: MOUSE, Strain/Sex: C3H/FEMALE, Route: TRANSPLACENTAL, Dose: 0, 0.5 MMOL IN 0.9% STERILE SALINE (51 MG/KG) ON DAY 16 OF GESTATION (STUDY DURATION: LIFETIME)) was “inactive; negative”, the carcinogen call (Species: MOUSE, Strain/Sex: C3H/FEMALE, Route: TRANSPLACENTAL, Dose: 0, 0.5 MMOL IN 0.9% STERILE SALINE (51 MG/KG) ON DAY 19 OF GESTATION (STUDY DURATION: LIFETIME), Tumor Site: Type of Lesion: LIVER: CARCINOMA, LUNG: TUMOR) was “active; positive” and the carcinogen call (Species: MOUSE, Strain/Sex: C3H/MALE, Route: INTRAPERITONEAL, Dose: 0, 12 UG ON DAYS 0, 3, 9 AND 15 (STUDY DURATION: 132 WK), Tumor Site: Type of Lesion: LIVER: TUMORS) was “active; positive”. For the same molecule, the carcinogen call (Species: MOUSE, Strain/Sex: C3H/MALE, Route: TRANSPLACENTAL, Dose: 0, 0.5 MMOL IN 0.9% STERILE SALINE (51 MG/KG) ON DAY 16 OF GESTATION (STUDY DURATION: LIFETIME)) was “inactive; negative”, the carcinogen call (Species: MOUSE, Strain/Sex: C3H/MALE, Route: TRANSPLACENTAL, Dose: 0, 0.5 MMOL IN 0.9% STERILE SALINE (51 MG/KG) ON DAY 19 OF GESTATION (STUDY DURATION: LIFETIME), Tumor Site: Type of Lesion: LIVER: CARCINOMA, LUNG: CARCINOMA) was “active; positive” and the carcinogen call (Species: MOUSE, Strain/Sex: C57BL/6J/FEMALE, Route: INTRAPERITONEAL, Dose: 0, 15, 90 MG/KG ONCE (STUDY DURATION: 18 MONTHS), Dose: 0, 15, 90 MG/KG ONCE (STUDY DURATION: 18 MONTHS), Tumor Site: Type of Lesion: LUNG: TUMOR) was “active; positive”. For the same molecule, the carcinogen call (Species: MOUSE, Strain/Sex: C57BL/MALE, Route: INTRAPERITONEAL, Dose: 0, 12 UG ON DAYS 0, 3, 9 AND 15 (STUDY DURATION: 132 WK)) was “inactive; negative”, the carcinogen call (Species: MOUSE, Strain/Sex: EU-PIM-1/FEMALE, Route: GAVAGE, Dose: 0, 1, 3 MG/KG 1/D FOR 38 WK (STUDY DURATION: 38 WK), Dose: 0, 1, 3 MG/KG 1/D FOR 38 WK (STUDY DURATION: 38 WK), Tumor Site: Type of Lesion: LIVER: HEMANGIOSARCOMA, LYMPHATIC SYSTEM: LYMPHOMA) was “active; positive” and the carcinogen call (Species: MOUSE, Strain/Sex: EU-PIM-1/MALE, Route: GAVAGE, Dose: 0, 1, 3 MG/KG 1/D FOR 38 WK (STUDY DURATION: 38 WK), Dose: 0, 1, 3 MG/KG 1/D FOR 38 WK (STUDY DURATION: 38 WK), Tumor Site: Type of Lesion: LIVER: HEMANGIOSARCOMA) was “active; positive”. The carcinogen call (Species: MOUSE, Strain/Sex: SWISS/MALE, Route: INTRAGASTRIC, Dose: 0, 80, 40 MG/KG IN NORMAL SALINE ADMINISTERED WITH A 4 WK GAP BETWEEN EACH DOSE, (STUDY DURATION: 24 WK), Dose: 0, 80, 40 MG/KG IN NORMAL SALINE ADMINISTERED WITH A 4 WK GAP BETWEEN EACH DOSE, (STUDY DURATION: 24 WK), Tumor Site: Type of Lesion: LUNG: TUMOR) was “active; positive”, the carcinogen call (Species: MOUSE, Strain/Sex: SWR/FEMALE, Route: INTRAPERITONEAL, Dose: 0, 15, 90 MG/KG ONCE (STUDY DURATION: 18 MONTHS), Dose: 0, 15, 90 MG/KG ONCE (STUDY DURATION: 18 MONTHS), Tumor Site: Type of Lesion: LUNG: TUMOR) was “active; positive” and the carcinogen call (Species: RABBIT, Route: ORAL, Tumor Site: Type of Lesion: LIVER) was “active; positive”. The carcinogen call (Species: RAT, Route: INTRAPERITONEAL, RECTAL, Tumor Site: Type of Lesion: LIVER) was “active; positive”, the carcinogen call (Species: RAT, Route: INTRAVENOUS, Tumor Site: Type of Lesion: KIDNEY) was “active; positive” and the carcinogen call (Species: RAT, Route: ORAL, Tumor Site: Type of Lesion: LIVER, ESOPHAGUS, KIDNEY, NASAL CAVITY, Tumor Site: Type of Lesion: LIVER, ESOPHAGUS, KIDNEY, NASAL CAVITY) was “active; positive”. For the same molecule, the carcinogen call (Species: RAT, Strain/Sex: F344/FEMALE, Route: INTRAVESICULAR, Dose: 0, 2.5 MG IN 0.2 ML ETHANOL: DEIONIZED WATER (1:3) 2/WK FOR 25 WK (TOTAL DOSE 1.2 MMOL) (STUDY DURATION: LIFESPAN), Tumor Site: Type of Lesion: LIVER: HEMANGIOSARCOMA, ESOPHAGUS: TUMOR) was “active; positive”, the carcinogen call (Species: RAT, Strain/Sex: F344/FEMALE, Route: ORAL, Dose: 0, 18 MG/L IN DEIONIZED DRINKING WATER DURING WK 1, 5, AND 9 (STUDY DURATION: 121 WK), Tumor Site: Type of Lesion: HEMATOPOIETIC SYSTEM: LEUKEMIA) was “active; positive” and the carcinogen call (Species: RAT, Strain/Sex: WISTAR/MALE, Route: ORAL, Dose: 0, 0.033, 0.066, 0.132, 0.264, 0.528, 1.056, 1.584, 2.112, 2.640, 3.168, 4.224, 5.280, 6.336, 8.448, 16.896 PPM IN DRINK, Dose: 0, 0.033, 0.066, 0.132, 0.264, 0.528, 1.056, 1.584, 2.112, 2.640, 3.168, 4.224, 5.280, 6.336, 8.448, 16.896 PPM IN DRINK, Tumor Site: Type of Lesion: ESOPHAGUS: TUMOR, LIVER HEPATOCELLULAR CARCINOMA) was “active; positive”.
